For this experiment, the target named is T1, PD-1-Ig binding to PD-L1-TVMV-His (PD-L1-His) (Homo sapiens, UniProt Q9NZQ7).
T1 construct: hPDL1(19-239)-TVMV-His; made in house; host or cells: HEK293T
Put plainly: PD-1/PD-L1 Homogenous Time-Resolved Fluorescence (HTRF) binding assay. The following applies: range class; PD-L1-His 10 nM, PD-1-Ig 20 nM. In a few lines:
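Compound was pre-incubated 15 min with PD-L1-His (10 nM final; human, cynomolgus, mouse or other species), then PD-1-Ig (20 nM final) was added for a further 15 min. Detection used Eu-cryptate anti-Ig (1 nM) and APC anti-His (20 nM), read after 30 min as the HTRF 665/620 nm ratio. Buffer was dPBS, 0.1% BSA, 0.05% Tween-20.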

Bridge positions count the residues as written; N and C are the ends. Square brackets hold non-standard residues; d marks the D form. Peptide text beside a SMILES is read from it. NBnAla = C[C@H](NCc1ccccc1)C(=O)O; Hyp = O=C(O)[C@@H]1C[C@@H](O)CN1; Gly(N-CH2CH2OH) = O=C(O)CNCCO; NMeNle = CCCC[C@H](NC)C(=O)O; NMeA = CN[C@@H](C)C(=O)O; Dab = NCC[C@H](N)C(=O)O; Nme = COCCNCC(=O)O; NEtG = CCNCC(=O)O

T1 sequence (Q9NZQ7 with tags, fused parts or gaps): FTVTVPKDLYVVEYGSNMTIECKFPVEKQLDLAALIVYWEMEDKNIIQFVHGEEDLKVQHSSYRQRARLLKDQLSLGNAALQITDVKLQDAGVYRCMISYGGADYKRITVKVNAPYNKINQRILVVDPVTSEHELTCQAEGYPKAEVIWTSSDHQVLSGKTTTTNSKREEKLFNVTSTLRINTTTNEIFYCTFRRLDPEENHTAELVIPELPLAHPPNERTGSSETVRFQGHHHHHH

`CCCC[C@H]1C(=O)N(C)[C@@H](CCCC)C(=O)N[C@@H](CC(C)C)C(=O)N[C@H](C(=O)NCC(N)=O)CSCC(=O)N[C@@H](Cc2ccc(O)cc2)C(=O)N(C)[C@@H](C)C(=O)N[C@@H](CC(N)=O)C(=O)N(CCO)CC(=O)N[C@@H](Cc2cnc[nH]2)C(=O)N[C@@H](CCC(=O)O)C(=O)N2C[C@H](O)C[C@H]2C(=O)N[C@@H](Cc2c[nH]c3ccccc23)C(=O)N[C@@H](CCN)C(=O)N[C@@H](Cc2c[nH]c3ccccc23)C(=O)N1C` [Example 3016] ({CH2CO}-Y[NMeA]N[Gly(N-CH2CH2OH)]HE[Hyp]W[Dab]W[NMeNle][NMeNle]LCG-NH2; thioether N-14): the IC50 – broadly, the point on the concentration scale where inhibition reaches its midpoint – lay in the range of 10 to 99 nM. The value for `CCCC[C@H]1C(=O)N(C)[C@@H](CCCC)C(=O)N[C@@H](CC(C)C)C(=O)N[C@H](C(=O)NCC(N)=O)CSCC(=O)N[C@@H](Cc2ccc(O)cc2)C(=O)N(C)[C@@H](C)C(=O)N[C@@H](CC(N)=O)C(=O)N(CC(=O)O)CC(=O)N[C@@H](Cc2c[nH]cn2)C(=O)N[C@@H](CCC(=O)O)C(=O)N2C[C@H](O)C[C@H]2C(=O)N[C@@H](Cc2c[nH]c3ccccc23)C(=O)N[C@@H](CCN)C(=O)N[C@@H](Cc2csc3ccccc23)C(=O)N1C` [Example 5002] was 5 to 9.9 nM; that for `CCCC[C@H]1C(=O)N[C@@H](CC(C)C)C(=O)N[C@H](C(=O)NCC(N)=O)CSCC(=O)N[C@@H](Cc2ccc(O)cc2)C(=O)N(C)[C@@H](C)C(=O)N[C@@H](CC(N)=O)C(=O)N2CCC[C@H]2C(=O)N[C@@H](Cc2cnc[nH]2)C(=O)N[C@@H](CCC(=O)O)C(=O)N2C[C@H](O)C[C@H]2C(=O)N[C@@H](Cc2c[nH]c3ccccc23)C(=O)N[C@@H](CCN)C(=O)N[C@@H](Cc2c[nH]c3ccccc23)C(=O)N(Cc2ccccc2)[C@@H](C)C(=O)N1C` [Example 3029] ({CH2CO}-Y[NMeA]NPHE[Hyp]W[Dab]W[NBnAla][NMeNle]LCG-NH2; thioether N-14) was 100 to 10000 nM; that for `CCCC[C@H]1C(=O)N[C@@H](CC(C)C)C(=O)N[C@H](C(=O)NCC(N)=O)CSCC(=O)N[C@@H](Cc2ccc(O)cc2)C(=O)N(C)[C@@H](C)C(=O)N[C@@H](CC(N)=O)C(=O)N2CCC[C@H]2C(=O)N[C@@H](Cc2cnc[nH]2)C(=O)N[C@@H](CCC(=O)O)C(=O)N2C[C@H](O)C[C@H]2C(=O)N[C@@H](Cc2c[nH]c3ccccc23)C(=O)N[C@@H](CCN)C(=O)N[C@@H](Cc2c[nH]c3ccccc23)C(=O)N(CC(=O)O)[C@@H](C)C(=O)N1C` [Example 3028] was 100 to 10000 nM. As for `CCCC[C@H]1C(=O)N(C)[C@@H](CCCC)C(=O)N[C@@H](CC(C)C)C(=O)N[C@H](C(=O)NCC(N)=O)CSCC(=O)N[C@@H](Cc2ccc(O)cc2)C(=O)N(C)[C@@H](C)C(=O)N[C@@H](CC(N)=O)C(=O)N2CCC[C@H]2C(=O)N[C@@H](Cc2cnc[nH]2)C(=O)N[C@@H](CCC(=O)O)C(=O)N(CCOC)CC(=O)N[C@@H](Cc2c[nH]c3ccccc23)C(=O)N[C@@H](CCN)C(=O)N[C@@H](Cc2c[nH]c3ccccc23)C(=O)N1C` [Example 3006] ({CH2CO}-Y[NMeA]NPHE[Nme]W[Dab]W[NMeNle][NMeNle]LCG-NH2; thioether N-14), the figure is 10 to 99 nM; as for `CCCC[C@H]1C(=O)N(C)[C@@H](CCCC)C(=O)N[C@@H](CC(C)C)C(=O)N[C@H](C(=O)NCC(N)=O)CSCC(=O)N[C@@H](Cc2ccc(O)cc2)C(=O)N(C)[C@@H](C)C(=O)N[C@@H](CC(N)=O)C(=O)N(CC)CC(=O)N[C@@H](Cc2cnc[nH]2)C(=O)N[C@@H](CCC(=O)O)C(=O)N2C[C@H](O)C[C@H]2C(=O)N[C@@H](Cc2c[nH]c3ccccc23)C(=O)N[C@@H](CCN)C(=O)N[C@@H](Cc2c[nH]c3ccccc23)C(=O)N1C` [Example 3013] ({CH2CO}-Y[NMeA]N[NEtG]HE[Hyp]W[Dab]W[NMeNle][NMeNle]LCG-NH2; thioether N-14), 10 to 99 nM. For `CCCC[C@H]1C(=O)N(C)[C@@H](CCCC)C(=O)N[C@@H](CC(C)C)C(=O)N[C@H](C(=O)NCC(N)=O)CSCC(=O)N[C@@H](Cc2ccc(O)cc2)C(=O)N(C)[C@@H](C)C(=O)N[C@@H](CC(N)=O)C(=O)N(CCOC)CC(=O)N[C@@H](Cc2cnc[nH]2)C(=O)N[C@@H](CCC(=O)O)C(=O)N2C[C@H](O)C[C@H]2C(=O)N[C@@H](Cc2c[nH]c3ccccc23)C(=O)N[C@@H](CCN)C(=O)N[C@@H](Cc2c[nH]c3ccccc23)C(=O)N1C` [Example 3009] ({CH2CO}-Y[NMeA]N[Nme]HE[Hyp]W[Dab]W[NMeNle][NMeNle]LCG-NH2; thioether N-14), the IC50 is 10 to 99 nM.

Source of the values: patent US9861680B2, “Immunomodulators” (BRISTOL-MYERS SQUIBB COMPANY, priority 2014, dated 2018).
